Test results taken from patent US12180198B2, “Ribocil C antibiotics effective for Gram-negative pathogens” (THE BOARD OF TRUSTEES OF THE UNIVERSITY OF ILLINOIS, priority 2018, dated 2024).
Counter-ions that a name gives are not always drawn.

Columns and labels:
[1] = system: Gram-negative ESKAPE pathogens and E. coli; experiment: MIC, micro-dilution broth method (text summary); format: cell-based
[2] = system: E. coli harboring FabI A116V; experiment: MIC against resistant mutants; format: cell-based; details: Escherichia coli
Experimental: (§1) Antimicrobial susceptibility tests. Susceptibility testing was performed in biological triplicate, using the micro-dilution broth method as outlined by the Clinical and Laboratory Standards Institute. Bacteria were cultured with cation-adjusted Muller-Hinton broth (Sigma-Aldrich, Cat #90922) in round-bottom 96-well plates (Corning, Cat #3788). Human serum (pooled gender, 0.2 μm filtered) was purchased from BioIVT (Hicksville, NY).
(§2) Selection of resistant mutants. Resistant mutants were selected via the large inoculum method.

A. baumannii W41979 [3] = experiment: Bacterial sepsis survival model; format: in vivo; details: CD-1 mice, 50 mg/kg IV once-per-day, four doses
Experimental: (§3) FIG. 4. In vivo efficacy of Debio-1452-NH3. A. Kaplan-Meier survival curve of mouse efficacy model of A. baumannii sepsis. Seven-week-old CD-1 mice were infected with A. baumannii W41979 (2.6×10^8 CFU/mouse, 15 mice per group) via IV injection. Mice were treated once-a-day for 4 days with FabI inhibitor (IV, 50 mg/kg). Log-rank test, p<0.0001. B. Acute pneumonia infections initiated in CD-1 mice with A. baumannii W41979 (2.1×10^8 CFU/mouse, intranasal) were treated with vehicle (8 mice) or FabI inhibitor (10 mice per group) 8, 30, and 48 h post-infection (IV, 50 mg/kg), and the bacterial burden was evaluated 72 h post-infection. C. Kaplan-Meier survival curve of in vivo efficacy model of K. pneumonia sepsis. Seven-week-old CD-1 mice were infected with K. pneumoniae BAA-1705 (1.08×10^8 CFU/mouse, 15 mice per group) via IV injection. […] Acute pneumonia infections initiated in CD-1 mice with K. pneumoniae BAA-1705 (4.4×10^8 CFU/mouse, intranasal) were treated with vehicle or FabI inhibitor (8 mice per group) 6, 23, and 45 h post-infection (IV, 50 mg/kg), and the bacterial burden was evaluated 72 h post-infection. […] Acute pneumonia infections initiated in CD-1 mice with E. coli AR-0493 (1.73×10^8 CFU/mouse, intranasal) were treated with vehicle or FabI inhibitor (8 mice per group) 6 and 28 h post-infection (IV, 50 mg/kg), and the bacterial burden was evaluated 48 h post-infection. […]

[4] = system: strains harboring FabI G148S; experiment: MIC against resistant mutants; format: cell-based, E. coli; details: Escherichia coli, FABIG148S
Experimental: as §1, §2

[5] = system: colistin-resistant E. coli; experiment: Sepsis survival and pneumonia bacterial burden models; format: in vivo; details: CD-1 mice, E. coli AR-0493, 50 mg/kg IV
Experimental: as §3, with “C.” for “C. Kaplan-Meier survival curve of in vivo efficacy model of K. pneumonia sepsis. Seven-week-old CD-1 mice were infected with K. pneumoniae BAA-1705 (1.08×10^8 CFU/mouse, 15 mice per group) via IV injection.”
(§4) Acute pneumonia bacterial burden model. […] At 48 h post-infection (E. coli) or 72 h post-infection (A. baumannii and K. pneumoniae), CFU were determined in the lungs through serial dilutions. […]

[6] = system: carbepenem-resistant K. pneumoniae; experiment: as above; format: in vivo; details: CD-1 mice, K. pneumoniae BAA-1705, 50 mg/kg IV
Experimental: as §3, with “C.” for “C. Kaplan-Meier survival curve of in vivo efficacy model of K. pneumonia sepsis. Seven-week-old CD-1 mice were infected with K. pneumoniae BAA-1705 (1.08×10^8 CFU/mouse, 15 mice per group) via IV injection.”
as §4

Mouse MTD = experiment: Mouse MTD
Experimental: The protocol was approved by the IACUC at the University of Illinois at Urbana-Champaign (Protocol Number: 16144). In these studies, 10- to 12-week-old female C57BL/6 mice purchased from Charles River were used. The maximum tolerate dose (MTD) of a single compound was determined first. […] For multiple doses, the compound was given by daily IP for 5 consecutive days and mice were monitored for signs of toxicity for 1 month. MTD was the highest dosage with acceptable toxicity (e.g., <20% weight loss). Single dose MTDs were initially determined.

[7] = system: E. cloacae, K. pneumoniae, and A. baumannii; experiment: MIC, micro-dilution broth method (text summary); format: cell-based; details: strains of E. cloacae
A. baumannii W41979 [8] = experiment: Acute pneumonia bacterial burden model; format: in vivo; details: CD-1 mice, 50 mg/kg IV
Experimental: as §3, with “C.” for “C. Kaplan-Meier survival curve of in vivo efficacy model of K. pneumonia sepsis. Seven-week-old CD-1 mice were infected with K. pneumoniae BAA-1705 (1.08×10^8 CFU/mouse, 15 mice per group) via IV injection.”
as §4

Compound	MIC ([1]; Escherichia coli, Gram-negative ESKAPE pathogens and E. coli) [µg/mL]	activity (in words) ([1]; Gram-negatives with intact outer membranes)	MIC [2] [µg/mL]	survival (in words) (A. baumannii W41979 [3])	MIC [4] [µg/mL]	efficacy in infected mice (in words) [5]	efficacy in infected mice (in words) [6]	dose well tolerated in mice (Mouse MTD; female, C57BL/6, mouse, in vivo, ip, 5 days) [mg/kg]	single dose well tolerated (Mouse MTD; mice, IP injection, single dose, monitored 2 weeks) [mg/kg]	daily dosing well tolerated (Mouse MTD; mice, IP, daily for 5 consecutive days) [mg/kg]	MIC [7] [µg/mL]	bacterial burden (in words) (A. baumannii W41979 [8])
Cc1c(CN(C)C(=O)/C=C/c2cnc3c(c2)CCC(=O)N3)oc2ccccc12 [Debio-1452, (E)-N-methyl-N-((3-methylbenzofuran-2-yl)methyl)-3-(7-oxo-5,6,7,8-tetrahydro-1,8-naphthyridin-3-yl)acrylamide, reference compound]	> 32	no activity	–	–	–	–	–	–	–	–	–	–
Cc1c(CN(C)C(=O)/C=C/c2cnc3c(c2)CC(N)C(=O)N3)oc2ccccc12 (stereo not drawn) [Debio-1452-NH3, (E)-3-(6-amino-7-oxo-5,6,7,8-tetrahydro-1,8-naphthyridin-3-yl)-N-methyl-N-((3-methylbenzofuran-2-yl)methyl)acrylamide hydrochloride]	–	–	64	significantly increased survival	> 64	efficacy	efficacy	50	50	50	4 to 8	reduced bacterial burden
